Test results from PubChem BioAssay (NCI).
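All cell lines were grown in 96-well plates and treated with compound for 48 hours. At the TGI there is no net growth.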

How the values were obtained:
Assay in all cases: NCI tumour cell line growth inhibition, 48 h
SF-539 CNS = tested on: SF-539 CNS
RPMI-8226 leukemia = tested on: RPMI-8226 leukemia
KM20L2 colon = tested on: KM20L2 colon
IGROV1 ovarian = tested on: IGROV1 ovarian
786-0 renal = tested on: 786-0 renal
CCRF-CEM leukemia = tested on: CCRF-CEM leukemia
HT29 colon = tested on: HT29 colon
SK-OV-3 ovarian = tested on: SK-OV-3 ovarian
M14 melanoma = tested on: M14 melanoma
KM12 colon = tested on: KM12 colon
DLD-1 colon = tested on: DLD-1 colon
MOLT-4 leukemia = tested on: MOLT-4 leukemia
A498 renal = tested on: A498 renal
DU-145 prostate = tested on: DU-145 prostate
SF-295 CNS = tested on: SF-295 CNS
HL-60(TB) leukemia = tested on: HL-60(TB) leukemia
SW-620 colon = tested on: SW-620 colon
SNB-78 CNS = tested on: SNB-78 CNS
U251 CNS = tested on: U251 CNS
MDA-MB-435 = tested on: MDA-MB-435
OVCAR-8 ovarian = tested on: OVCAR-8 ovarian
HS 578T breast = tested on: HS 578T breast
HCT-15 colon = tested on: HCT-15 colon
OVCAR-3 ovarian = tested on: OVCAR-3 ovarian
A549 NSCLC = tested on: A549 NSCLC
NCI-H460 lung = tested on: NCI-H460 lung
TK-10 renal = tested on: TK-10 renal
ACHN renal = tested on: ACHN renal
LXFL 529 NSCLC = tested on: LXFL 529 NSCLC
OVCAR-5 ovarian = tested on: OVCAR-5 ovarian
SN12C renal = tested on: SN12C renal
M19-MEL melanoma = tested on: M19-MEL melanoma
UACC-257 melanoma = tested on: UACC-257 melanoma
HOP-92 NSCLC = tested on: HOP-92 NSCLC
HOP-18 NSCLC = tested on: HOP-18 NSCLC
COLO 205 colon = tested on: COLO 205 colon
UO-31 renal = tested on: UO-31 renal
SNB-19 CNS = tested on: SNB-19 CNS
CAKI-1 renal = tested on: CAKI-1 renal
DMS 273 small cell lung = tested on: DMS 273 small cell lung
SK-MEL-5 melanoma = tested on: SK-MEL-5 melanoma
OVCAR-4 ovarian = tested on: OVCAR-4 ovarian
SK-MEL-2 melanoma = tested on: SK-MEL-2 melanoma
MALME-3M melanoma = tested on: MALME-3M melanoma
NCI-H522 lung = tested on: NCI-H522 lung
BT-549 breast = tested on: BT-549 breast
NCI-H226 lung = tested on: NCI-H226 lung
HOP-62 NSCLC = tested on: HOP-62 NSCLC
SNB-75 CNS = tested on: SNB-75 CNS
T-47D breast = tested on: T-47D breast
EKVX NSCLC = tested on: EKVX NSCLC
UACC-62 melanoma = tested on: UACC-62 melanoma
XF 498 CNS = tested on: XF 498 CNS
LOX IMVI melanoma = tested on: LOX IMVI melanoma
SF-268 CNS = tested on: SF-268 CNS
DMS 114 small cell lung = tested on: DMS 114 small cell lung
MCF7 breast = tested on: MCF7 breast
SR leukemia = tested on: SR leukemia
HCC-2998 colon = tested on: HCC-2998 colon
HCT-116 colon = tested on: HCT-116 colon
K-562 leukemia = tested on: K-562 leukemia
NCI-H23 lung = tested on: NCI-H23 lung
SK-MEL-28 melanoma = tested on: SK-MEL-28 melanoma
RXF 393 renal = tested on: RXF 393 renal

For `O=C(O)COc1ccc(C(=O)/C(SS/C(C(=O)c2ccc(OCC(=O)O)c(Cl)c2Cl)=C2\C=C(c3ccc(F)cc3)SS2)=C2/C=C(c3ccc(F)cc3)SS2)c(Cl)c1Cl`, the TGI (SF-539 CNS) was 26.9 µM, the TGI (RPMI-8226 leukemia) was 31.5 µM and the TGI (KM20L2 colon) was > 95.8 µM. For the same compound, the TGI (IGROV1 ovarian) was 41.7 µM, the TGI (786-0 renal) was > 57 µM and the TGI (CCRF-CEM leukemia) was 18.1 µM. The TGI (HT29 colon) was 70.6 µM, the TGI (SK-OV-3 ovarian) was > 88.7 µM and the TGI (M14 melanoma) was 54.8 µM. For the same compound, the TGI (KM12 colon) was 32.6 µM, the TGI (DLD-1 colon) was > 53.7 µM and the TGI (MOLT-4 leukemia) was 31.2 µM. For the same compound, the TGI (A498 renal) was 77.5 µM, the TGI (DU-145 prostate) was > 100 µM and the TGI (SF-295 CNS) was 69.8 µM. The TGI (HL-60(TB) leukemia) was 6.03 µM, the TGI (SW-620 colon) was 36.3 µM and the TGI (SNB-78 CNS) was 43.1 µM. The TGI (U251 CNS) was 24.7 µM, the TGI (MDA-MB-435) was > 100 µM and the TGI (OVCAR-8 ovarian) was 55.8 µM. The TGI (HS 578T breast) was 19 µM, the TGI (HCT-15 colon) was 28.3 µM and the TGI (OVCAR-3 ovarian) was 20.7 µM. The TGI (A549 NSCLC) was > 93.4 µM, the TGI (NCI-H460 lung) was 49.1 µM and the TGI (TK-10 renal) was 99.2 µM. For the same compound, the TGI (ACHN renal) was 56 µM, the TGI (LXFL 529 NSCLC) was 13.6 µM and the TGI (OVCAR-5 ovarian) was 74.7 µM. It also gave a TGI (SN12C renal) of 38.7 µM, a TGI (M19-MEL melanoma) of 44.6 µM and a TGI (UACC-257 melanoma) of 68.8 µM. The TGI (HOP-92 NSCLC) was 15.4 µM, the TGI (HOP-18 NSCLC) was 43.6 µM and the TGI (COLO 205 colon) was 25 µM. For the same compound, the TGI (UO-31 renal) was 36.4 µM, the TGI (SNB-19 CNS) was 53.7 µM and the TGI (CAKI-1 renal) was > 77.9 µM. It also gave a TGI (DMS 273 small cell lung) of 27.9 µM, a TGI (SK-MEL-5 melanoma) of 51.5 µM and a TGI (OVCAR-4 ovarian) of 40.3 µM. The TGI (SK-MEL-2 melanoma) was 34.7 µM, the TGI (MALME-3M melanoma) was 77.3 µM and the TGI (NCI-H522 lung) was 8.44 µM. The TGI (BT-549 breast) was 71.5 µM, the TGI (NCI-H226 lung) was 40.4 µM and the TGI (HOP-62 NSCLC) was > 84.8 µM. The TGI (SNB-75 CNS) was 27.4 µM, the TGI (T-47D breast) was 31.3 µM and the TGI (EKVX NSCLC) was > 81.4 µM. The TGI (UACC-62 melanoma) was 23.9 µM, the TGI (XF 498 CNS) was 27 µM and the TGI (LOX IMVI melanoma) was 12.9 µM. The TGI (SF-268 CNS) was 23.1 µM, the TGI (DMS 114 small cell lung) was 12.7 µM and the TGI (MCF7 breast) was > 100 µM. The TGI (SR leukemia) was 13.4 µM, the TGI (HCC-2998 colon) was > 100 µM and the TGI (HCT-116 colon) was 25.6 µM. For the same compound, the TGI (K-562 leukemia) was 32.6 µM, the TGI (NCI-H23 lung) was 33.7 µM and the TGI (SK-MEL-28 melanoma) was 38.8 µM.
In the case of `O=C(NCc1ccccc1)c1cc2ccc(O)c(O)c2cn1`, the TGI (SF-539 CNS) is reported as 32.6 µM, the TGI (RPMI-8226 leukemia) is reported as > 100 µM and the TGI (KM20L2 colon) is reported as > 100 µM. The TGI (IGROV1 ovarian) was 44.5 µM, the TGI (786-0 renal) was 33.1 µM and the TGI (CCRF-CEM leukemia) was > 100 µM. The TGI (HT29 colon) was > 100 µM, the TGI (SK-OV-3 ovarian) was > 100 µM and the TGI (M14 melanoma) was 19.3 µM. The TGI (KM12 colon) was > 100 µM, the TGI (DLD-1 colon) was 37.8 µM and the TGI (A498 renal) was > 100 µM. The TGI (SF-295 CNS) was 31.5 µM, the TGI (HL-60(TB) leukemia) was > 100 µM and the TGI (SW-620 colon) was 37.4 µM. For the same compound, the TGI (SNB-78 CNS) was 40.6 µM, the TGI (U251 CNS) was 52.8 µM and the TGI (OVCAR-8 ovarian) was 23.9 µM. For the same compound, the TGI (HCT-15 colon) was > 100 µM, the TGI (OVCAR-3 ovarian) was 41.6 µM and the TGI (A549 NSCLC) was > 100 µM. For the same compound, the TGI (NCI-H460 lung) was 39.1 µM, the TGI (TK-10 renal) was > 100 µM and the TGI (ACHN renal) was 29.4 µM. It also gave a TGI (LXFL 529 NSCLC) of 30.6 µM, a TGI (OVCAR-5 ovarian) of 58.3 µM and a TGI (SN12C renal) of 31.7 µM. The TGI (M19-MEL melanoma) was 3.23 µM, the TGI (UACC-257 melanoma) was 29.1 µM and the TGI (HOP-92 NSCLC) was 33.3 µM. The TGI (HOP-18 NSCLC) was 44.5 µM, the TGI (COLO 205 colon) was > 100 µM and the TGI (UO-31 renal) was 36.5 µM. For the same compound, the TGI (SNB-19 CNS) was > 100 µM, the TGI (CAKI-1 renal) was 33.6 µM and the TGI (DMS 273 small cell lung) was 32.3 µM. The TGI (SK-MEL-5 melanoma) was 23.3 µM, the TGI (OVCAR-4 ovarian) was 30.3 µM and the TGI (SK-MEL-2 melanoma) was 25.4 µM. The TGI (MALME-3M melanoma) was 30.4 µM, the TGI (NCI-H522 lung) was 30.9 µM and the TGI (NCI-H226 lung) was > 100 µM. For the same compound, the TGI (HOP-62 NSCLC) was 47.9 µM, the TGI (SNB-75 CNS) was 32.9 µM and the TGI (EKVX NSCLC) was > 100 µM. It also gave a TGI (UACC-62 melanoma) of 33.5 µM, a TGI (XF 498 CNS) of 31.7 µM and a TGI (LOX IMVI melanoma) of 16.2 µM. For the same compound, the TGI (SF-268 CNS) was 29.7 µM, the TGI (DMS 114 small cell lung) was 26.8 µM and the TGI (SR leukemia) was > 100 µM. The TGI (RXF 393 renal) was 30.5 µM, the TGI (HCC-2998 colon) was > 100 µM and the TGI (HCT-116 colon) was 32.1 µM. The TGI (K-562 leukemia) was > 100 µM, the TGI (NCI-H23 lung) was 25.9 µM and the TGI (SK-MEL-28 melanoma) was 30.3 µM.
